Results from article PMC3914206.

Tests used:
panel of 442 kinases [1] = molecular target: T1, panel of 442 kinases (Homo sapiens, UniProt Q9BZL6); type: binding; conditions: Compound Concentration 10 µM
T1 construct: purchased KINOMEscan
T1 sequence (Q9BZL6 1-878): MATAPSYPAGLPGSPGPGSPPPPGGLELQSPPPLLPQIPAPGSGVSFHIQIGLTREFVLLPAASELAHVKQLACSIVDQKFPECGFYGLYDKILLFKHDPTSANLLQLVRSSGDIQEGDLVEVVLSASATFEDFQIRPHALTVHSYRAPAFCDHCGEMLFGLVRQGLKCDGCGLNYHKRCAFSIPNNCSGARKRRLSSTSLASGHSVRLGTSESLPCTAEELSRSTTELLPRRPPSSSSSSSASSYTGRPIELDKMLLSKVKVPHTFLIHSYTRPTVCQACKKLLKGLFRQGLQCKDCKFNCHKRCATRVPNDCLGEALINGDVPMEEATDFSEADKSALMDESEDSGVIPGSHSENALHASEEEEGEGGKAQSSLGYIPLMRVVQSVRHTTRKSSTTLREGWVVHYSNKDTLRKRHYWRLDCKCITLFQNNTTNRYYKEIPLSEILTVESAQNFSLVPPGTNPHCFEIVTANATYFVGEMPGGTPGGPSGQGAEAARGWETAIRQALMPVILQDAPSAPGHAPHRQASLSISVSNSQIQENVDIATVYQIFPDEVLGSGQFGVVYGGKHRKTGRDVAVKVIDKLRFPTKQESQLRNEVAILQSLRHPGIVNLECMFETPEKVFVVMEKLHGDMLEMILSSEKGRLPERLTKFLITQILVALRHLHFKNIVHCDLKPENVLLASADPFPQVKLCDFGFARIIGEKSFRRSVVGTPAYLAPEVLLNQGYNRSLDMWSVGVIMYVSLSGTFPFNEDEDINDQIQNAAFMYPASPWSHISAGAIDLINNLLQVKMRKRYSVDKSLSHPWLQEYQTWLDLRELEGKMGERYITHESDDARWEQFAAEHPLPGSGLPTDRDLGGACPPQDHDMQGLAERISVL
Text: (§1) We assessed the selectivity of members of this scaffold using the KINOMEscan methodology across a near comprehensive panel of 442 kinases [[18,27]].

panel of 442 kinases [2] = molecular target: T2, panel of 442 kinases (Homo sapiens, UniProt Q9UHD2); type: binding; conditions: kinase TBK1; compound concentration 10 µM
T2 construct: purchased KINOMEscan
T2 sequence (Q9UHD2 1-729): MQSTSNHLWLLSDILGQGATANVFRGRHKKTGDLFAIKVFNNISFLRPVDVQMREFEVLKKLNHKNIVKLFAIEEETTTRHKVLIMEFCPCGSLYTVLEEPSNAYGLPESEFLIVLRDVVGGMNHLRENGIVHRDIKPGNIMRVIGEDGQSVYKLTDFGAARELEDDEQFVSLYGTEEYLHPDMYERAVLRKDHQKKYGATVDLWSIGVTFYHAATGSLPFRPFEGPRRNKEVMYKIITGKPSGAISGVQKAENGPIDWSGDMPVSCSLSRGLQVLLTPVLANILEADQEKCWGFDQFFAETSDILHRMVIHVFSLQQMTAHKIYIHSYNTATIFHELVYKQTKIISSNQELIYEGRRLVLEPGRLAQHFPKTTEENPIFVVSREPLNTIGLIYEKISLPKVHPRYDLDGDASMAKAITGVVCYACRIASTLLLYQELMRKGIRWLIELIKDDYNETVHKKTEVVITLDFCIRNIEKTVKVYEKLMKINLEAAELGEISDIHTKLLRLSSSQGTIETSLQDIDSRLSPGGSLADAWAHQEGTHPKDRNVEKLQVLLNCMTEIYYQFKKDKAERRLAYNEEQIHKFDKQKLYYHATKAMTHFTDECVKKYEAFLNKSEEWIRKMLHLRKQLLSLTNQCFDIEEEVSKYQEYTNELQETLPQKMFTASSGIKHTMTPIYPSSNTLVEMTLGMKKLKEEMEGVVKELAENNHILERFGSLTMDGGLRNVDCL
Text: as §1

| SMILES | KINOMEscan: PRKD2 (panel of 442 kinases [1]) | % Ctrl, TBK1 (panel of 442 kinases [2]) [% Ctrl] |
| --- | --- | --- |
| COc1cc(C(=O)N2CCC(N3CCN(C)CC3)CC2)ccc1Nc1ncc2c(n1)N(C)c1ccccc1C(=O)N2C [15 (LRRK2-IN-1)] | 59 | 97 |
| CCOc1cc(C(=O)N2CCC(N3CCN(C)CC3)CC2)ccc1Nc1ncc2c(n1)N(C1CCCC1)c1ccccc1C(=O)N2C [Compound 26] | 100 | 100 |
| COc1cc(C(=O)N2CCC(N3CCN(C)CC3)CC2)ccc1Nc1ncc2c(n1)N1CCc3cccc(c31)C(=O)N2C [Compound 24] | 30 | 98 |
| COc1cc(C(=O)N2CCC(N3CCN(C)CC3)CC2)ccc1Nc1ncc2c(n1)N(C1CCCC1)c1ccccc1C(=O)N2C [Compound 25, 11-cyclopentyl-2-((2-methoxy-4-(4-(4-methylpiperazin-1-yl)piperidine-1-carbonyl)phenyl)amino)-5-methyl-5H-benzo[e]pyrimido[5,4-b][1,4]diazepin-6(11H)-one] | 87 | 100 |
